Measured values published in US20240226234A1, “WNT5A PEPTIDES FOR THE TREATMENT OF ACUTE M[…]” (W[…], priority 2021, published 2024).
No end group written: not given here. *: point of attachment. For = O=C*

Tests used:
Assay type in all cases: cell-based, human
[1] = tested on: HL60 cells; assay: Transwell chemotaxis assay toward CXCL12, HL60 cells; conditions: HL60, Foxy-5 100 μM 72 h pretreatment, CXCL12 100 ng/mL, 24 h
Description: Leukemic cell lines, pretreated or not with Foxy-5 (72 hours of stimulation) were tested for chemotaxis in Transwell-based assays for Chemotaxis (6.5 mm diameter, 8 μm pore size; Corning). Polycarbonate membranes were incubated with poly-L-lysine (1 mg/mL) for 1 hour at 37° C. followed by saline buffer washing. Briefly, cells were collected, washed with media containing bovine serum albumin (0.1% BSA; Sigma), and then seeded at a density of 5×10^5 cells into the upper chamber of the transwell. The lower chamber was filled with media containing 0.5% BSA (negative control), media containing 10% FBS (positive control) and media 5 containing 0.5% BSA with CXCL12 (100 ng/ml; Peprotech) (Melo et al., 2014). Following 6 h or 24 h of incubation at 37° C., cells that migrated into the lower chamber were collected, centrifuged, resuspended in saline buffer and counted. The number of migrated cells was expressed as a percentage of the input, i.e., the cells number applied directly to the lower compartment in parallel wells. The migration of cells was normalized to 100%+/−standard deviation (SD) of triplicates (Favaro et al., 2013).
We investigated whether restoring of WNT5A could enable the modulation CXCL12-induced chemotaxis of leukemia cells. […]

[2] = tested on: K562 cells; assay: Cell cycle assay, K562 cells; conditions: 72 h
Description: (§1) A panel of human myeloid leukemia cell lines (HL60, K562, KG1a, THP1 and U937) and HS-5 mesenchymal stromal cells lineage were cultured in Roswell Park Memorial Institute medium-1640 (RPMI; Sigma) containing 10% Fetal Bovine Serum (Gibco), glutamine (2 mM; Sigma), penicillin (100 μg/mL; Sigma), streptomycin (100 μg/mL; Sigma), and amphotericin B (0.25 μg/mL; Gibco). The cells were maintained in a humidified atmosphere at 37° C. and 5% CO2 and the experiments were performed when they reached exponential growth. For the assays, cells were seeded on a 24-well plate and treated or not with Foxy-5 for 72 hours.
Cells treated with Foxy or with vehicle were collected and fixed, at least, 24 hours in 70% ethanol. DNA was stained with a buffer containing iodide propidium (20 μg/mL; Sigma) and RNase A (10 μg/mL; Sigma). Cell fluorescence was detected with a FACSCalibur flow cytometer (BD). The proportions of cells in the cell cycle phases were analyzed by Modifit (Verify Software House Inc), according to DNA distributions.
As we observed a reduction in the leukemic proliferation after Foxy-5 treatment, we also analyzed the cell cycle phases. Leukemia cell lines were treated for 72 hours with Foxy-5, at doses of 50 μM and 100 μM, or vehicle, stained with the Piper buffer containing RNAse and iodeto propidium and then analyzed by flow cytometry.

[3] = tested on: KG1a cells; assay: Cell growth assay, KG1a cells; conditions: Foxy-5 100 μM, 72 h
Description: as §1
Cells treated with Foxy or with vehicle were collected and cell number was evaluated by manual counting in monoculture and by microscopy with Image J software analysis in 2D culture.
Next, we evaluated the proliferation rates since this process is modulated by ROS. We treated the cells with Foxy-5 (100 μM) or with vehicle (DMSO) during 72 hours, and then cell growth was analyzed by counting the cells in monoculture, manually, or by the Image J software analysis of the 2D cultures. […] Similar results were obtained in the 2D culture system using leukemia cells and HS-5 mesenchymal stromal cells.

[4] = tested on: PI3K and MAPK pathways; assay: Western blot of PI3K and MAPK pathway proteins, K562 cells; conditions: K562, Foxy-5 50 μM or 100 μM, 72 h
Description: Equal amounts of protein were resolved by sodium dodecyl sulphate-polyacrylamide gel electrophoresis and transferred onto nitrocellulose membranes (Millipore). Detection was carried out with the chemiluminescent substrate using an ECL Plus (GE-Healthcare). Monoclonal antibodies against P70S6K (sc-8418) and polyclonal antibodies against Actin (sc-1616), AKT1/2/3 (sc-8312), BAX (sc-493), BCL-XL (sc-8392), GAPDH (sc-32,233), p-AKT1/2/3 (sc-33,437) and p-P70S6K (sc-7984) were purchased from Santa Cruz Biotechnology. ERK1/2 ([pT185/Y187]; 44-680G) and ERK1/2 (44-654G) from Invitrogen. Quantitative blots were carried out using the UN-SCAN-IT densitometer software.
Based on the above results, the activity of proteins of PI3K and MAPK pathways were then investigated in a western blot. Briefly, U937 and K562 cells were seeded and treated with Foxy-5 (50 μM or 100 μM) or vehicle for 72 hours. Then, equal amounts of protein were used for total extracts followed by electrophoresis on 12% SDS polyacrylamide gels under reducing conditions, transferred to nitrocellulose membranes, blocked with 10% skimmed milk in TBS-0.1% Tween for 1 hour, stained with appropriate primary and secondary antibodies. The membranes were visualized with chemiluminescence using an ECL Plus (GE-Healthcare). Quantitative analyses of the optical intensities of the protein bands were determined with Un-Scan-It Gel 6.1 (Silk Scientific Inc.).

[5] = tested on: HL60 cells; assay: Actin polymerization assay, HL60 cells; conditions: HL60, Foxy-5 100 μM 72 h
Description: F-actin polymerization was analyzed in treated leukemic cell lines using AlexaFluor 633-labeled phalloidin (A22284, Invitrogen) before and after CXCL12 stimulation. The cells were stimulated with CXCL12 (300 ng/ml; Peprotech) in serum-free media at 37 °C for 30 and 120 seconds. The reaction was stopped by adding 3 volumes of paraformaldehyde (3.7%) at room temperature for 10 min, then washed and permeabilized on ice. Cells were stained with 633-phalloidin (2 mg/mL). Flow cytometric data were analyzed using a FACS flow cytometer (BD) followed by FlowJo software analysis. The F-actin content obtained were normalized calculating the ratio between each stimulated cells-mean fluorescence intensity (MFI) values and the nonstimulated cells MFI from the basal levels of the control cells and expressed as fold change.
Therefore, we performed a flow cytometry analysis to evaluate whether Foxy-5 treatment would be able to disrupt actin polymerization. Leukemia cell lines were treated with Foxy-5 (100 μM) or vehicle during 72 hours, stimulated with CXCL12 (300 ng/ml) for 30 or 120 seconds, and stained with […] for detection of actin polymerization by flow cytometry. […] Thus, a significant reduction of actin polymerization was shown after Foxy-5 treatment when compared to untreated cells after 30 seconds of CXCL12 induction (P<. 001).

Substance: Foxy-5: Formylated hexapeptide fragment of WNT5A: MDGCEL (SEQ. ID. NO. 3) with methionine in position 1 as N-formyl methionine; WNT5A-mimicking compound (For-MDGCEL; listed as Homo sapiens)
- CXCL12-induced chemotaxis (migrated cells as percentage of the input, average) [1]: 4.31%
- cells in G0/G1 cell cycle phase (average) ([2]; K562, co-cultured with HS5 stromal cells, Foxy-5 50 μM): 65.32%
- cells in G0/G1 cell cycle phase (average) ([2]; K562, co-cultured with HS5 stromal cells, Foxy-5 100 μM): 83.52%
- cells in G0/G1 cell cycle phase (average) ([2]; K562, monoculture, Foxy-5 50 μM): 59.00%
- cells in G0/G1 cell cycle phase (average) ([2]; K562, monoculture, Foxy-5 100 μM): 83.51%
- reduced cell growth compared to vehicle treated cells ([3]; 2D culture with HS-5 stromal cells): 2.63 fold decrease
- reduced cell growth compared to vehicle treated cells ([3]; monoculture): 1.37 fold decrease
- phosphorylation level of AKT compared to vehicle-treated cells [4]: lower phosphorylation levels
- phosphorylation level of ERK compared to vehicle-treated cells [4]: lower phosphorylation levels
- protein level of cyclin D1 compared to vehicle-treated cells [4]: reduced protein level
- F-actin content following CXCL12 stimulation ([5]; CXCL12 300 ng/ml for 30 seconds): 1.14 fold increase
- F-actin content following CXCL12 stimulation ([5]; CXCL12 300 ng/ml for 120 seconds): 1.07 fold increase
